1 compound from paper PMC6254361, “The properties of Msh2–Msh6 ATP binding mutants suggest a signal amplification mechanism in DNA mismatch repair” (The Journal of Biological Chemistry, 2018) can be followed below.

The test deals with T1, Msh2–Msh6 (Saccharomyces cerevisiae, UniProt P25847+Q03834, P25847:K694A).
T1 sequence (P25847 1-964 K694A): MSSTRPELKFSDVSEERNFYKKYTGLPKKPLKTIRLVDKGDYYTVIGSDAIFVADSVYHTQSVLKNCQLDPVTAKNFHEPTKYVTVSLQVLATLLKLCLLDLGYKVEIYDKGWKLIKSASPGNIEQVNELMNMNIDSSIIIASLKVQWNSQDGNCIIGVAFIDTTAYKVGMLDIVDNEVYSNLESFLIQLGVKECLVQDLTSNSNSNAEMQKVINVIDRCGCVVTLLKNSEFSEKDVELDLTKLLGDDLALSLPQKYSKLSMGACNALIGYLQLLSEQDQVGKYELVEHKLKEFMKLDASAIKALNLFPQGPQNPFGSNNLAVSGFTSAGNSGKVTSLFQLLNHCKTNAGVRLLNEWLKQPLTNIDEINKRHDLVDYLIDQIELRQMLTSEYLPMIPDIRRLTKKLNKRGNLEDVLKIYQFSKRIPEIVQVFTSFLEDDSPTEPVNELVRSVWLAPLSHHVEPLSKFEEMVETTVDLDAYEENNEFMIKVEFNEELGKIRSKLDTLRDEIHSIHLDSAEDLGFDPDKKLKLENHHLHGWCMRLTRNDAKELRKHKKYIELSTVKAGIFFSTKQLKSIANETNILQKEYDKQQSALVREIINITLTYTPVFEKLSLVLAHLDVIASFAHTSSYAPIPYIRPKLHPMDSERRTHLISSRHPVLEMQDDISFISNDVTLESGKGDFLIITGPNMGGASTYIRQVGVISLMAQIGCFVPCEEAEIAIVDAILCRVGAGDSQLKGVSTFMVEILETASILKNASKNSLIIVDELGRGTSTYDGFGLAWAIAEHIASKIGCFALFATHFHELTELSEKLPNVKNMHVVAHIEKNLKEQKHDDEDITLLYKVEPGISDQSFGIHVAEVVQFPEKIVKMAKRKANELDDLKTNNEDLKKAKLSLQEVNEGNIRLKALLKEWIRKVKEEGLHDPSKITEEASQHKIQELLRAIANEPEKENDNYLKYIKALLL
T1 sequence (Q03834 1-1242): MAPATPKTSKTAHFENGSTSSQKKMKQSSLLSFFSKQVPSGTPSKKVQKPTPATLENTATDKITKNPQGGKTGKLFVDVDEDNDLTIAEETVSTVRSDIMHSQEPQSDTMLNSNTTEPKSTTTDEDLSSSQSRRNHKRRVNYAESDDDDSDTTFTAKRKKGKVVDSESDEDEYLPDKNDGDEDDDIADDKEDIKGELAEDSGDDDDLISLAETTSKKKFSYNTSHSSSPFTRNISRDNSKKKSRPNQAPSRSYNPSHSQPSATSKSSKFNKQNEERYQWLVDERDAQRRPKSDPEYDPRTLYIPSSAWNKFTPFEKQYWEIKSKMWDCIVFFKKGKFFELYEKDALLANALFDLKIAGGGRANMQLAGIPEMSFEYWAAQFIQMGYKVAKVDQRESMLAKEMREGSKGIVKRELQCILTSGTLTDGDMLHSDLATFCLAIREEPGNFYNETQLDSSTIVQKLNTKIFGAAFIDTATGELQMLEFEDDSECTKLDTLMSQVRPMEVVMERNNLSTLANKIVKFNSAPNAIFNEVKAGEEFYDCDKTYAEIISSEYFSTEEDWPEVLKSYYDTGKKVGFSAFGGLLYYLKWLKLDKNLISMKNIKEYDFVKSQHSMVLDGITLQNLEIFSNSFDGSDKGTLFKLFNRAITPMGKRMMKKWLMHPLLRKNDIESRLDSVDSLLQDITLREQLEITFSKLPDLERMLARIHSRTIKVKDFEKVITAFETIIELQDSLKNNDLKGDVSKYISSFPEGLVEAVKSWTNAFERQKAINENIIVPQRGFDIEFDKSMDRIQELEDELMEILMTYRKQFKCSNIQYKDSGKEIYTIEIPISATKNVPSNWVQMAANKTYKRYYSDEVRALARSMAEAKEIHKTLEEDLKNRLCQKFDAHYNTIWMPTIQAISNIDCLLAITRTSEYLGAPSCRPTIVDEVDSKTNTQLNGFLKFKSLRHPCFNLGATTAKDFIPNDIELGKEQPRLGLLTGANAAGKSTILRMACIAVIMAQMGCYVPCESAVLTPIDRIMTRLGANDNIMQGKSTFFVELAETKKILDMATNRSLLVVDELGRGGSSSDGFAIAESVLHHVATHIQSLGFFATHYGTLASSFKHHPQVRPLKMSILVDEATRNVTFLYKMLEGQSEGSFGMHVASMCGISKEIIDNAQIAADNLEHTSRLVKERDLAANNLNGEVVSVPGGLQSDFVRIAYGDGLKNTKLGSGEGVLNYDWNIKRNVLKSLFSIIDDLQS
As to the kind of experiment: UV cross-linking of [γ-32P]ATP, SDS-PAGE, phosphorimaging. The test is classed as binding. To be noted: labelled compound; no Mg2+, EDTA, pH 8, on ice; Msh2 site at 60 μM ATP, Msh6 site at 1 μM ATP.

Turning to `Nc1ncnc2c1ncn2[C@@H]1O[C@H](COP(=O)(O)OP(=O)(O)OP(=O)(O)O)[C@@H](O)[C@H]1O` [ATP], the “relative ATP binding” value is “Msh2(K694A)–Msh6 and Msh2(K694R)–Msh6 mutant complexes were defective for ATP binding to both”.
